Data on 9 compounds can be found in ChEMBL document CHEMBL2074167, “Sterol transport by the human breast cancer resistance protein (ABCG2) expressed in Lactococcus lactis” (J Biol Chem, 2003).

The target in series [1] is T1, Broad substrate specificity ATP-binding cassette transporter ABCG2 (Homo sapiens, UniProt Q9UNQ0).
T1 sequence (Q9UNQ0 whole entry): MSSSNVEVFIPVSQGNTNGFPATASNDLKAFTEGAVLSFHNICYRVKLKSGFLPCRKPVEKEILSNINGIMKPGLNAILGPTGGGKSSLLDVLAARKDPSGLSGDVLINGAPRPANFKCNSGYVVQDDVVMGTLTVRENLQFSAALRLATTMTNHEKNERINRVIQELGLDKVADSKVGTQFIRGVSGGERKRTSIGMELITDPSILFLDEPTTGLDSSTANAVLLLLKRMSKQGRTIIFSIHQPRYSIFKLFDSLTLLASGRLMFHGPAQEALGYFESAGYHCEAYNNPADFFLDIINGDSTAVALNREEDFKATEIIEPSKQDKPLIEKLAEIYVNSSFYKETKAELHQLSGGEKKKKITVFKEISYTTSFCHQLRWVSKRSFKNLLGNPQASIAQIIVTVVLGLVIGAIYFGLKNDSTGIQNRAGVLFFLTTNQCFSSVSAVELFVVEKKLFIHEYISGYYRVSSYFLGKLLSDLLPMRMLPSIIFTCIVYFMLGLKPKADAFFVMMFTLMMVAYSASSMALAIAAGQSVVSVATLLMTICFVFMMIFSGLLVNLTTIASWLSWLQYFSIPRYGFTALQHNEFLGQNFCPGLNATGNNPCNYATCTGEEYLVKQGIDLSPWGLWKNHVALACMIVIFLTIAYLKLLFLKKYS
The experiment in a line: TP_TRANSPORTER: uptake in BCRP-expressing Lactococcus lactis cells. The series is classed as functional, NZ9000.

The target in series [2] is T1, Broad substrate specificity ATP-binding cassette transporter ABCG2. Kind of series: TP_TRANSPORTER: uptake in membrane vesicle from BCRP-expressing Lactococcus lactis cells. The series is classed as functional, cell membranes, NZ9000.
Series [3] shares this target. Kind of series: TP_TRANSPORTER: ATPase assay in membrane vesicle from BCRP-expressing Lactococcus lactis cells. It is filed as functional, cell membranes, NZ9000.
For series [4] the target is unchanged. The experiment in a line: TP_TRANSPORTER: growth inhibition in BCRP-expressing Lactococcus lactis cells. The series is classed as functional, NZ9000.

The structures appear in SMILES notation.

In the case of `CCOc1ccc(-c2nc3cc(-c4nc5cc(N6CCN(C)CC6)ccc5[nH]4)ccc3[nH]2)cc1`, the Activity result in series [1] and in series [2] was “substrate []” each time.

In the case of `CC(C)CCC[C@@H](C)[C@H]1CC[C@H]2[C@@H]3CC=C4C[C@@H](O)CC[C@]4(C)[C@H]3CC[C@]12C` [CHOLESTEROL], the Activity result in series [3] is “substrate []”. On the same count and under the same terms, under `COc1cccc2c1C(=O)c1c(O)c3c(c(O)c1C2=O)C[C@@](O)(C(C)=O)C[C@@H]3O[C@H]1C[C@H](N)[C@H](O)[C@H](C)O1` [DAUNORUBICIN] stands “substrate []”. Regarding `C[C@]12CC[C@@H]3c4ccc(O)cc4CC[C@H]3[C@@H]1CC[C@@H]2O` [ESTRADIOL], the Activity entry in series [1] and in series [3] was “substrate []” throughout. In the case of `CC[n+]1c(-c2ccccc2)c2cc(N)ccc2c2ccc(N)cc21.[Br-]` [HOMIDIUM BROMIDE], the Activity entry in series [1] and in series [4] was “substrate []” throughout. For `CC(=O)[C@H]1CC[C@H]2[C@@H]3CCC4=CC(=O)CC[C@]4(C)[C@H]3CC[C@]12C` [PROGESTERONE], the Activity result in series [3] is “substrate []”. In the case of `COC(=O)c1ccccc1-c1c2ccc(=N)cc-2oc2cc(N)ccc12.Cl` [RHODAMINE123], the Activity entry in series [1] was “substrate []”. For `CC/C(=C(\c1ccccc1)c1ccc(OCCN(C)C)cc1)c1ccccc1` [TAMOXIFEN], the Activity entry in series [3] was “substrate []”. On to `C[C@]12CC[C@H]3[C@@H](CCC4=CC(=O)CC[C@@]43C)[C@@H]1CC[C@@H]2O` [TESTOSTERONE], for which, in series [3], the Activity result is “substrate []”.
